≈ marks a conversion by molar mass, not a printed value.
Legend:
Format in all cases: functional
DLD-1 = assay: Cytotoxicity against human DLD1 cells by MTT assay; conditions: read-out: ED50 (the source's name)
NCI-H661 = assay: Cytotoxicity against human NCI-H661 cells by MTT assay; conditions: read-out: ED50 (the source's name)
[1] = Cytotoxicity against human HEPA 59T/VGH cells by MTT assay; conditions: read-out: ED50 (the source's name)
KB = assay: Cytotoxicity against human KB cells by MTT assay; conditions: read-out: ED50 (the source's name)
[2] = Cytotoxicity against human Medulloblastoma cells by MTT assay; conditions: Medulloblastoma cell, read-out: ED50 (the source's name)
HeLa = assay: Cytotoxicity against human HeLa cells by MTT assay; conditions: read-out: ED50 (the source's name)

COc1cccc2c1C(=O)c1c(O)c3c(c(O)c1C2=O)C[C@@](O)(C(=O)CO)C[C@@H]3O[C@H]1C[C@H](N)[C@H](O)[C@H](C)O1 [DOXORUBICIN]
EC50 (DLD-1): 0.57 mg/L (≈ 1.05 µM) | EC50 (NCI-H661): 0.29 mg/L (≈ 0.534 µM) | EC50 [1]: 0.47 mg/L (≈ 0.865 µM) | EC50 (KB): 0.25 mg/L (≈ 0.46 µM) | EC50 [2]: 0.41 mg/L (≈ 0.754 µM) | EC50 (HeLa): 0.22 mg/L (≈ 0.405 µM)

— ChEMBL document CHEMBL1151169, “New beta-caryophyllene-derived terpenoids from the soft coral Sinularia nanolobata” (2004)
